Data published in patent US20250325675A1, “APTAMER, CONJUGATE, COMPOSITION, METHOD FOR PREPARING SAME, AND USE THEREOF” (priority 2022, published 2025).
{Cy5} = cyanine 5 fluorescent dye

Columns and labels:
[1] = test system: A549 human non-small cell lung cancer tumor spheres; experiment: High content imaging: entry into A549 tumor spheres; format: cell-based; details: 100 nM, imaging without washing
Procedure: (§1) In this experiment, the entry of conjugate AP1 provided by the present disclosure and comparative conjugate comparative AP10 into U118MG glioma tumor spheres and A549 human non-small cell lung cancer tumor spheres was observed by a PerkinElmer High Content Imaging system (Operatta).
(§2) 80 μL fresh, sterilized and unsolidified 2% agarose was added into the culture wells of a 96-well plate. […] Half of the supernatant was aspirated every 48 h and fresh DMEM medium was added along the wall of the culture wells. After 7 days of culture, the cells were observed under the microscope to confirm that complete cell spheres were obtained, indicating successful tumor sphere cultivation.
(§3) Each culture well was added with AP1 or comparative AP10 according to the method of experimental Example 2, and imaged in a high content imaging system, with the only difference of directly performing imaging after culture without washing and performing imaging according to the measured fluorescence intensity of Cy5.

SVGp12 normal astrocytes = experiment: High content imaging: entry of conjugates into SVGp12 normal astrocytes; format: cell-based, human; details: 100 nM, 30 min 37°C
Procedure: (§4) In this experiment, the entry of conjugate AP1 provided by the present disclosure and comparative conjugate comparative AP10 into different cells was observed by a PerkinElmer High Content Imaging system (Operatta).
(§5) U118MG glioma cells, SVGp12 normal astrocytes, T98G human brain glioma cells, U251 human glioma cells, A549 human non-small cell lung cancer cells, MCF-7 human breast cancer cells, and 293T human kidney epithelial cells were all purchased from the Shanghai Cell Bank of Chinese Academy of Sciences. […] The supernatant was aspirated and DPBS buffer (purchased from Thermo Fisher) was added to wash the plate 2 times (100 μL each time).
(§6) Conjugate AP1 prepared above and yeast tRNA were respectively formulated into conjugate solution 2A with DMEM medium, and the conjugate solution 2A comprised yeast tRNA at a final concentration of 100 μg/mL and conjugate AP1 at a final concentration of 100 nM. […]
(§7) Normalization was performed according to the mean fluorescence intensity of control group 2Y, that is, subtracting the mean fluorescence intensity of control group 2Y from the fluorescence intensity of test group 2X before performing imaging.

[2] = test system: A549 human non-small cell lung cancer cells; experiment: High content imaging: entry of conjugates into A549 cells; format: cell-based; details: 100 nM, 30 min 37°C
Procedure: as §4, §5, §6, §7

U118-MG glioma cells = experiment: Flow cytometry: entry of conjugates into U118-MG glioma cells in vitro; format: cell-based, human; details: for relative fluorescence difference R: R=(MFIAP1−MFICAP10)/MFICAP10; for mean fluorescence intensity (MFI): 1 h 37°C, yeast tRNA 100 μg/mL, flow cytometry
Procedure: U118MG cells were seeded into a 96-well plate at 5×10^5 cells/well. Conjugate AP1 prepared above and yeast tRNA were respectively formulated into conjugates solution 1A, 1B, 1C, 1D, 1E, 1F, 1G, 1H, and 1I with DMEM medium, and these conjugate solutions 1A-1I comprised yeast tRNA at a final concentration of 100 μg/mL and respectively comprised conjugate AP1 at final concentrations of 5 nM, 10 nM, 20 nM, 40 nM, 60 nM, 80 nM, 100 nM, 150 nM, 200 nM, and […].
Control conjugate comparative AP10 prepared above and yeast tRNA were respectively formulated into conjugates solution 1A′, 1B′, 1C′, 1D′, 1E′, 1F′, 1G′ 1H′, and 1I′ with DMEM medium, and these conjugate solutions 1A′-1I′ comprised yeast tRNA at a final concentration of 100 μg/mL and respectively comprised control conjugate comparative AP10 at final concentrations of 5 nM, 10 nM, 20 nM, 40 nM, 60 nM, 80 nM, 100 nM, 150 nM, 200 nM, and […].
The aforementioned culture wells containing U118MG cells were respectively added with the conjugate solutions 1A-1I above in an amount of 200 μL/well and designated as test group 1A-test group 1I. The aforementioned culture wells containing U118MG cells were respectively added with the conjugate solution 1A′-1I′ above in an amount of 200 μL/well and designated as control group 1A′-control group 1I′. Another culture well containing U118MG cells was added with 200 μL DMEM medium containing yeast tRNA at a final concentration of 100 μg/mL and designated as blank control group 1J. The 96-well plate containing the above test groups and the blank control group were incubated at 37° C. for 1 h in the dark; after incubation, the supernatant of the reaction mixture of each test group and the blank control group was aspirated, and DPBS buffer (purchased from Thermo Fisher) was added to wash the plate 3 times (100 μL each time). After the washing solution was aspirated, each culture well was added with 100 μL DMEM medium to obtain a cell suspension. The supernatant was removed by centrifugation and then 500 μL DPBS buffer was added to re-suspend the cells. Flow cytometry analysis was performed with flow cytometer (BD Biosciences): 10,000 cells in each test group or the blank control group were analyzed, the fluorescence intensity distribution was determined and the mean fluorescence intensity (MFI, a.u.) was calculated. Furthermore, the mean fluorescence intensity corresponding to each final concentration of conjugates is listed in Table 4 below for comparison, and the relative fluorescence difference R is calculated according to the following equation: R=(MFIAP1−MFICAP10)/MFICAP10.
Therein, MFIAP1 represents mean fluorescence intensity of conjugate AP1 in U118-MG glioma cells, and MFICAP10 represents mean fluorescence intensity of comparative AP10 in U118-MG glioma cells.

[3] = test system: U118MG glioma tumor spheres; experiment: High content imaging: entry into U118MG tumor spheres; format: cell-based, human; details: 100 nM, imaging without washing
Procedure: as §1, §2, §3

U118MG glioma cells = experiment: High content imaging: entry of conjugates into U118MG glioma cells; format: cell-based, human; details: 100 nM, 30 min 37°C, normalized to control group 2Y
Procedure: as §4, §5, §6, §7

## CY5-CfUfGGAGUfUfCfAGACfGUfGUfUfGCfUfCfUfUfCfCfGAUfCfUfCf (CUGGAGUUCAGACGUGUUGCUCUUCCGAUCUC; 2'-fluoro at CU, RNA at AG, 5' {Cy5}, backbone not given here) [AP1]
[1]
  Cy5 fluorescence signal in tumor spheres: strong Cy5 fluorescence signal
SVGp12 normal astrocytes
  Cy5 fluorescence signal in cells: did not show any fluorescence signal
[2]
  Cy5 fluorescence signal in cells: strong Cy5 fluorescence signal
U118-MG glioma cells; 5 nM
  relative fluorescence difference R: 9.37
U118-MG glioma cells; 10 nM
  relative fluorescence difference R: 6.47
U118-MG glioma cells; 20 nM
  relative fluorescence difference R: 5.18
U118-MG glioma cells; 40 nM
  relative fluorescence difference R: 2.25
U118-MG glioma cells; 60 nM
  relative fluorescence difference R: 2.53
U118-MG glioma cells; 80 nM
  relative fluorescence difference R: 2.71
U118-MG glioma cells; 100 nM
  relative fluorescence difference R: 1.88
U118-MG glioma cells; 150 nM
  relative fluorescence difference R: 2.17
U118-MG glioma cells; 200 nM
  relative fluorescence difference R: 3.23
U118-MG glioma cells; 500 nM
  relative fluorescence difference R: 2.91
U118-MG glioma cells; at different concentrations (5-500 nM)
  mean fluorescence intensity compared with comparative AP10: significantly higher mean fluorescence intensity
U118-MG glioma cells; conjugate 5 nM
  mean fluorescence intensity (MFI): 263.4 a.u.
U118-MG glioma cells; conjugate 10 nM
  mean fluorescence intensity (MFI): 503.4 a.u.
U118-MG glioma cells; conjugate 20 nM
  mean fluorescence intensity (MFI): 1089.4 a.u.
U118-MG glioma cells; conjugate 40 nM
  mean fluorescence intensity (MFI): 1440.4 a.u.
U118-MG glioma cells; conjugate 60 nM
  mean fluorescence intensity (MFI): 2355.4 a.u.
U118-MG glioma cells; conjugate 80 nM
  mean fluorescence intensity (MFI): 2921.4 a.u.
U118-MG glioma cells; conjugate 100 nM
  mean fluorescence intensity (MFI): 3360.4 a.u.
U118-MG glioma cells; conjugate 150 nM
  mean fluorescence intensity (MFI): 3969.4 a.u.
U118-MG glioma cells; conjugate 200 nM
  mean fluorescence intensity (MFI): 7895.4 a.u.
U118-MG glioma cells; conjugate 500 nM
  mean fluorescence intensity (MFI): 15770.4 a.u.
[3]
  Cy5 fluorescence signal in tumor spheres: strong Cy5 fluorescence signal
U118MG glioma cells
  Cy5 fluorescence signal in cells: strong Cy5 fluorescence signal
